Results reported in EP4592291A1, “USE OF PEMETREXED NEAR-INFRARED FLUORESCENT MOLECULE TARGETING ALPHA-TYPE FOLATE RECEPTOR AS FLUORESCENT TRACER” (Nanjing Nuoyuan Medical Devices Co., Ltd, priority 2022, dated 2024).

Tests used:
[1] = tested on: inflammatory tissue slice with high folate receptor β expression; experiment: Fluorescence of inflammatory tissue slices, H1299 tumor plus peritonitis mouse model; assay type: in vivo; settings: H1299 tumor-bearing mouse with peritonitis, FIG. 7
Excerpt: (§1) The establishment of the inflammation model was verified by utilizing immunohistochemistry slices. […] By utilizing different specificities to different folate receptor subtypes, the tumors are effectively differentiated from the inflammatory tissues.

[2] = tested on: cell line RAW264.7 with high folate receptor β expression; experiment: Confocal cell imaging of tracer uptake, cell line with high folate receptor β expression; assay type: cell-based; settings: RAW264.7, 100 nM tracer, incubated 1 h
Protocol: (§2) 4. In order to verify the effect of the present disclosure, the following verification experiment was conducted: • (1) Use of a pemetrexed near-infrared fluorescent molecule in the aspect of differentiating a tumor with high folate receptor α expression from inflammation, that is, specific recognition of the pemetrexed near-infrared fluorescent molecule on a cell line with high folate receptor α expression: a cell line H1299 with high folate receptor α expression, a cell line A549 with low folate receptor α expression and a cell line RAW264.7 with high folate receptor β expression were selected. The cells were cultured in a Roswell Park Memorial Institute (RPPMI) culture medium containing 10% fetal bovine serum (FBS) and 1% […] in moist air containing 5% CO2 and 95% air at 37°C. The cells were incubated for 1 h in a confocal vessel by utilizing a 100 nM pemetrexed near-infrared fluorescent tracer. The cells after incubation were washed with PBS, stained with DPAI, fixed with paraformaldehyde and then photographed.

[3] = tested on: non-small cell lung cancer slice with high folate receptor α expression; experiment: Fluorescence of tumor slices, H1299 tumor plus peritonitis mouse model; assay type: in vivo; settings: H1299 tumor-bearing mouse with peritonitis, FIG. 6
Excerpt: as §1

[4] = tested on: cell line H1299 with high folate receptor α expression; experiment: Confocal cell imaging of tracer uptake, cell line with high folate receptor α expression; assay type: cell-based; settings: 100 nM tracer, incubated 1 h
Protocol: as §2

[5] = tested on: cell line A549 with low folate receptor α expression; experiment: Confocal cell imaging of tracer uptake, cell line with low folate receptor α expression; assay type: cell-based; settings: folate receptor α negative A549 cell, 100 nM tracer, incubated 1 h
Protocol: as §2

[6] = tested on: A549 tumor-bearing mice with low folate receptor α expression; experiment: In vivo near-infrared imaging of tumor-bearing mice, low folate receptor α expression; settings: tail vein injection, dose of 10 nm, after 2 h
Protocol: (§3) (2) The pemetrexed near-infrared fluorescent molecule was used for specifically recognizing non-small lung cancer tissues with high folate receptor α expression: the pemetrexed near-infrared fluorescent tracer was administrated to H1299 and A549 tumor-bearing mice via tail vein injection at a dose of 10 nm. After 2 h, imaging effects were observed through an animal imaging instrument and tissue biological distribution of mice was analyzed.

[7] = tested on: H1299 tumor-bearing mice with high folate receptor α expression; experiment: In vivo near-infrared imaging of tumor-bearing mice, high folate receptor α expression; settings: tail vein injection, dose of 10 nm, after 2 h
Protocol: as §3

CC1(C)C(=CC=C2CCCC(C=CC3=[N+](CCCCS(=O)(=O)[O-])c4ccc(S(=O)(=O)O)cc4C3(C)C)=C2Oc2ccc(C[C@H](NC(=O)c3ccc(CCc4c[nH]c5[nH]c(N)nc(=O)c45)cc3)C(=O)O)cc2)N(CCCCS(=O)(=O)O)c2ccc(S(=O)(=O)O)cc21
fluorescence of tissue slice [1]: almost has no fluorescence | fluorescence in the cell [2]: not detected | fluorescence intensity of tissue slice [3]: relatively high intensity | tracer fluorescence in the cell (internalization) [4]: seen in the entire cytoplasm | tracer fluorescence in the cell (internalization) [5]: not observed | targeting effect (imaging) [6]: not detected | specific recognition of tumor (imaging effect) [7]: capable of specifically recognizing | tumor background-to-signal ratio [7]: good
